Entries after “also recorded” stand apart in the source; their conditions may differ.
What was measured:
[1] = test system: ApoB mRNA in ApoE−/− primary hepatocytes; assay: ApoB silencing in ApoE−/− primary hepatocytes after serum pre-incubation of SNALP; format: cell-based, mouse; details: FIGS. 12-14; 1:57 SNALP pre-incubated with C57 or ApoE−/− serum, 40-0.625 nM siRNA on hepatocytes, 24 hr
Protocol: ApoE−/− primary hepatocytes were isolated and plated at 2.5×10^4 cells/well. Each SNALP formulation was pre-incubated with 50% C57 (ApoE-containing) serum or ApoE−/− serum at siRNA concentrations of 4000-62.5 nM for 1 hr at 37° C. Samples were then diluted to 40-0.625 nM on the hepatocytes for 24 hr. After 24 hr, cells were lysed and ApoB and GAPD mRNA levels were measured via bDNA (QG) assay.

[2] = TNS assay, apparent pKa of cationic lipid in 1:57 SNALP; details: 1:57 SNALP formulation containing encapsulated APOB siRNA
Protocol: 1:57 SNALP formulations containing encapsulated APOB siRNA were prepared as described in Section VI above with the following cationic lipids: (1) DLinDMA; (2) DLenDMA; (3) γ-DLenDMA (“g-DLenDMA”); (4) C2-DLinDAP; (5) DLinPip (4-OH); (6) DLinPip; (7) DLinPip (3-OH); (8) DLinDEA; (9) DDocDMA; (10) DAraDMA; (11) TLinDMA; (12) DLin-C2K Pip (30H); (13) DHep-C2K-DMA; (14) DPanDMA; (15) C2-DPanDMA (“DPan-C2-DMA”); (16) DPan-C2K-DMA; (17) DPan-C3K-DMA; (18) DPan-K6-DMA (“DPan-C1K6-DMA”); and (19) C2-TLinDMA.
The apparent pKa of the cationic lipids present in these SNALP formulations was determined using a 2-(p-toluidinyl)-naphthalene-6-sodium sulfonate (TNS) assay. TNS is a negatively-charged indicator of membrane potential that is electrostatically attracted to positively charged membranes (see, Bailey and Cullis, Biochemistry, 33 12573-80 (1994)). Subsequent adsorption to the lipid membrane results in the immediate environment of the TNS becoming more lipophilic, removing the water molecules that otherwise quench TNS fluorescence. As a result, TNS measures the surface potential of the particle, wherein the more positive the surface potential, the greater the level of fluorescence. The surface pKa values of each SNALP formulation were determined by varying the local pH in the presence of TNS. By plotting fluorescence versus pH, the pKa of the cationic lipid can be estimated in the particle as the pH where fluorescence equals 50% of total fluorescence.

liver ApoB mRNA = assay: Liver ApoB mRNA knockdown by 1:57 SNALP with APOB siRNA in mice; format: in vivo, mouse; details: 1:57 SNALP, 6:1 L:D, IV 0.1 mg/kg, female Balb/c mice, 48 hours
Protocol: Each SNALP formulation was administered by intravenous (IV) injection at 0.1 mg/kg into female Balb/c mice (n=3 per group). Plasma total cholesterol and/or liver ApoB mRNA levels were evaluated at 48 hours after SNALP administration. For dose response studies, SNALP formulations were administered by IV injection at 0.01 mg/kg, 0.03 mg/kg, or 0.1 mg/kg into female Balb/c mice (n=3 per group). Liver ApoB mRNA levels were evaluated at 48 hours after SNALP administration.
1:57 SNALP formulations containing encapsulated APOB siRNA at a 6:1 lipid:drug (L:D) ratio were prepared with the following cationic lipids: (1) DLinDMA; (2) Linoleyl/Linolenyl DMA (“Lin/LenDMA”); (3) DPanDMA; (4) TLinDMA; (5) Linoleyl/C6:0 DMA (“Lin/6:0”); (6) C2-DPanDMA; (7) DLin-C2K-Pip (30H); and (8) DHep-C2K-DMA.
Each SNALP formulation was administered by intravenous (IV) injection at 0.1 mg/kg into female Balb/c mice (n=3 per group). Livers were colleted at 48 hours after SNALP administration and liver ApoB mRNA levels were evaluated by performing an ApoB/GAPDH QG assay. Table 2 provides a characterization of the SNALP formulations used in this in vivo study.
In another study, 1:57 SNALP formulations containing encapsulated APOB siRNA at a 6:1 L:D ratio were prepared with the following cationic lipids: (1) DLinDMA; (2) C2-DPanDMA; (3) DPan-C2K-DMA; (4) DPan-C3K-DMA; and (5) DPan-C1K6-DMA.
Each SNALP formulation was administered by intravenous (IV) injection at 0.1 mg/kg into female Balb/c mice (n=3 per group). Livers were colleted at 48 hours after SNALP administration and liver ApoB mRNA levels were evaluated by performing an ApoB/GAPDH QG assay. Table 3 provides a characterization of the SNALP formulations used in this in vivo study.
For dose response studies, SNALP formulations were administered by IV injection at 0.01 mg/kg, 0.033 mg/kg, or 0.1 mg/kg into female Balb/c mice (n=3 per group). Liver ApoB mRNA levels were evaluated at 48 hours after SNALP administration by a branched DNA assay (QuantiGene assay) to assess ApoB mRNA relative to the housekeeping gene GAPDH.

[3] = Characterization of SNALP formulations (size, polydispersity, encapsulation); format: physicochemical; details: Table 5; for Initial Encaps. (%): 7:54 SNALP (PEG750-C-DMA 6.76 | cationic 54.06 | Chol 32.43 | DPPC 6.75 mol %) with PLK-1 siRNA; for Finished Product Encaps. (%) / Finished Product Poly / Finished Product Z-Avg (nm): 7:54 SNALP with PLK-1 siRNA
Protocol: In the context of nucleic acids, full encapsulation may be determined by performing a membrane-impermeable fluorescent dye exclusion assay, which uses a dye that has enhanced fluorescence when associated with nucleic acid. Specific dyes such as OliGreen® and RiboGreen® (Invitrogen Corp.; Carlsbad, Calif.) are available for the quantitative determination of plasmid DNA, single-stranded deoxyribonucleotides, and/or single- or double-stranded ribonucleotides. Encapsulation is determined by adding the dye to a liposomal formulation, measuring the resulting fluorescence, and comparing it to the fluorescence observed upon addition of a small amount of nonionic detergent. Detergent-mediated disruption of the liposomal bilayer releases the encapsulated nucleic acid, allowing it to interact with the membrane-impermeable dye. Nucleic acid encapsulation may be calculated as E=(Io−I)Io, where I and Io refer to the fluorescence intensities before and after the addition of detergent (see, Wheeler et al., Gene Ther., 6:271-281 (1999)). […]
(§1) Each SNALP formulation was administered by intravenous (IV) injection at 3 mg/kg into Scid mice containing Hep3B tumors (n=4 per group). Tumor tissue was colleted at 24 hours after SNALP administration and tumor PLK-1 mRNA levels were evaluated by performing a PLK-1/GAPDH QG assay. Table 5 provides a characterization of the SNALP formulations used in this in vivo study.

tumor PLK-1 mRNA = assay: Tumor PLK-1 mRNA knockdown by 7:54 SNALP in Scid mice containing Hep3B tumors; format: in vivo, mouse; details: FIG. 11, 7:54 SNALP with PLK-1 siRNA, IV 3 mg/kg, 24 hours, PLK-1/GAPDH QG assay
Protocol: 7:54 SNALP formulations containing encapsulated PLK-1 siRNA were prepared with the following cationic lipids: (1) DLinDMA; (2) TLinDMA; (3) DLin-C1K-DMA (“DLin-K-DMA”); (4) DPanDMA; (5) DPan-C2-DMA (“C2-DPanDMA”); (6) DPan-C2K-DMA; (7) DPan-C3K-DMA; and (8) DPan-C1K6-DMA.
as §1

[4] = Tolerability of 1:57 SNALP, liver enzyme levels; format: in vivo, mouse; details: FIG. 7, single IV bolus 10, 15 or 20 mg/kg, Balb/c mice, 48 hours post-injection, vs PBS control
Protocol: The tolerability of the 1:57 γ-DLenDMA SNALP formulation was evaluated with a single IV bolus injection of SNALP at either 10 mg/kg, 15 mg/kg, or 20 mg/kg in Balb/c mice (n=3 per group). Liver enzyme levels were measured at 48 hours post-injection.

[5] = Example 16, FIG. 8, ApoB/GAPDH QG assay

Compound | ApoB silencing activity and its dependence on ApoE [1] | pKa [2] | ApoB silencing activity (liver ApoB mRNA) (liver ApoB mRNA; [5]) | Initial Encaps. (%) [3] | Finished Product Encaps. (%) [3] | Finished Product Poly [3] | Finished Product Z-Avg (nm) [3] | tumor PLK-1 mRNA silencing activity (tumor PLK-1 mRNA) | liver enzyme levels [4] | ApoB silencing activity (liver ApoB mRNA) (liver ApoB mRNA; Example 16 second study, FIG. 9, 0.1 mg/kg)
CCCCC/C=C\C/C=C\CCCCCCCCC1(CCCCCCCC/C=C\C/C=C\CCCCC)OCC(CCCN(C)C)O1 (stereo not shown) [DLin-C3K-DMA] | less dependent on ApoE compared to other formulations tested |  |  |  |  |  |  |  |  | 
CCCCCC=CCC=CCCCCCCCCC1(CCCCCCCC/C=C\C/C=C\CCCCC)OCC(CCCCN(C)C)O1 (stereo not shown) [DLin-C4K-DMA] | less dependent on ApoE compared to other formulations tested |  |  |  |  |  |  |  |  | 
CCCCC/C=C\C/C=C\CCCCCCCCOCC(COCC(CN(C)C)OCCCCCCCC/C=C\C/C=C\CCCCC)OCCCCCCCC/C=C\C/C=C\CCCCC (stereo not shown) [TLinDMA, 1-(2,3-linoleyloxypropoxy)-2-(linoleyloxy)-(N,N-dimethyl)-propyl-3-amine] |  | ~5.35 | silencing activity that was comparable to DLinDMA | 70% | 100% | 0.07 | 126 nm |  |  | 
CC(C)CCCC(C)CCCC(C)CCCC(C)CCOCC(CN(C)C)OCCC(C)CCCC(C)CCCC(C)CCCC(C)C (stereo not shown) [DPanDMA, 1,2-Diphytanyloxy-3-(N,N-dimethyl)-propylamine] |  | 5.5 |  | 75% | 100% | 0.08 | 76 nm | no difference in silencing activity |  | 
CC/C=C\C/C=C\C/C=C\CCCCCCCCOCC(CN(C)C)OCCCCCCCC/C=C\C/C=C\C/C=C\CC (stereo not shown) [DLenDMA, 1,2-dilinolenyloxy-N,N-dimethylaminopropane, reference compound] | greatest levels of silencing activity when ApoE-containing serum was present |  |  |  |  |  |  |  | did not significantly elevate liver enzyme levels | 
CC(C)CCCC(C)CCCC(C)CCCC(C)CCOCC(CCN(C)C)OCCC(C)CCCC(C)CCCC(C)CCCC(C)C (stereo not shown) [Compound C2-DPanDMA, 1,2-Diphytanyloxy-(N,N-dimethyl)-butyl-4-amine] |  | ~6.1 | more potent compared to DLinDMA and substantially more potent compared to DPanDMA | 86% | 100% | 0.06 | 81 nm | no difference in silencing activity |  | more potent compared to DLinDMA; also recorded: greatest activity of all the phytanyl-containing cationic lipids tested
CCCCC/C=C\C/C=C\C/C=C\CCCCCOCC(CN(C)C)OCCCCC/C=C\C/C=C\C/C=C\CCCCC (stereo not shown) [γ-DLenDMA, 1,2-Di-γ-linolenyloxy-N,N-dimethylaminopropane] |  |  |  |  |  |  |  |  | did not significantly elevate liver enzyme levels | 
